Results as given in patent US20100239556A1, “PROMOTING ECM PRODUCTION BY FIBROBLAST CELLS AND/OR PROMOTING MIGRATION OF FIBROBLAST CELLS IN A BIOLOGICAL SYSTEM” (TGR BioScience Pty Ltd., priority 2006, published 2010).

B1: horse radish peroxidase (protein, UniProt P00433 31-338, looked up)
Peroxidase C1A: QLTPTFYDNSCPNVSNIVRDTIVNELRSDPRIAASILRLHFHDCFVNGCDASILLDNTTSFRTEKDAFGNANSARGFPVIDRMKAAVESACPRTVSCADLLTIAAQQSVTLAGGPSWRVPLGRRDSLQAFLDLANANLPAPFFTLPQLKDSFRNVGLNRSSDLVALSGGHTFGKNQCRFIMDRLYNFSNTGLPDPTLNTTYLQTLRGLCPLNGNLSALVDFDLRTPTIFDNKYYVNLEEQKGLIQSDQELFSSPNATDTIPLVRSFANSTQTFFNAFVEAMDRMGNITPLTGTQGQIRLNCRVVNSNS

Assays:
[1] = test system: dermis; test: Fibrogenic response after intradermal injection; type: in vivo, Sprague-Dawley rats
Experimental: Groups of up to 4-8 female Sprague-Dawley rats were lightly anaesthetized and the dorsum shaved. At different sites on their dorsum, each rat received a bolus, intradermal injection of 4 doses of a protein with peroxidase activity (LP, […]; HRP, 1.25-25 μg; SBP, 1.25-25 μg; or micro-peroxidase [MP], 5-125 μg), a vehicle control or TGFβ2 as a positive control. Arthromyces ramosus peroxidase (ARP) was also injected at one dose of 25 μg. Proteins with peroxidase activity were injected in a volume of 50 μl which was sufficient to create a small blister in the skin that resolved within a few minutes. Across the group of rats, each dose of proteins with peroxidase activity was injected into each of the different injection sites to control for any site-related, intra-rat variation. The rats were returned to their cage and left alone for 3 days after which they were killed by CO2 asphyxiation and the skin at the injection sites collected for analysis. The skin at the injection sites was excised using a 6 mm biopsy punch with each piece bisected and fixed in 10% buffered formalin. Fixed tissue was processed for histological assessment by graded dehydration and mounting in paraffin blocks. Blocks were sectioned and sections stained with haematoxylin and eosin (H&E) and Masson's trichrome for qualitative analysis by an experienced pathologist. H&E stained sections were scored for the “fibroblast reaction” (1+-4+) to reflect the number of fibroblast cells identified at the injection site, with 4+ representing the greatest response. H&E and Massons trichrome stained sections were used to evaluate the amount of deposited, collagen-rich extracellular matrix (ECM) that was associated with the fibroblast reaction at each injection site. The collagen-rich ECM deposition was scored 1+-3+ with 3+ representing the greatest response. The scores were combined across the group of rats and statistical analysis performed using a Kruskal-Wallis one way analysis of variance on ranks (ANOVA) followed by post-hoc t-test comparing the response of the proteins with peroxidase activity to the control using Dunn's or Dunnett's method, p<0.05 was considered significant.

[2] = test system: fibroblast cells isolated from an adult subject; test: Total protein incorporated into the extracellular matrix (silver stained gel); type: cell-based, human; settings: 10% FBS + 50 ug/ml ascorbic acid, 72 hours
Experimental: To ensure the soluble ECM proteins stimulated by the proteins with peroxidase activity are incorporated into the extracellular matrix generated by human fibroblast cells, given that this is a key requirement for the regeneration of collagen-rich tissues like skin and other organs and tissues, total proteins were extracted from the cell matrix. In these experiments, six well culture plates were seeded with fibroblast cells isolated from an adult subject at a density of 1.5×10^5 cells/well and after one week of culture, cells were treated with proteins with peroxidase activity in media containing 10% FBS and with the addition of ascorbic acid (vitamin C) which is a well known cofactor important for the cross linking of collagen molecules to generate polymeric fibres. Wells were supplemented daily to provide a final concentration of 50 ug/ml ascorbic acid in the media. After 72 hours the cell media was removed, the wells washed with warm PBS and the cell matrix extracted.
The total protein content of the cell matrix was solubilised by the addition of 500 ul/well of RIPA buffer (25 mM Tris-HCl pH7.4; 150 mM NaCl; 1% Triton X-100; 0.5% Na deoxycholate; 0.05% SDS). The cell matrix was scraped off the bottom of each well and the plates placed on a shaking platform for 10 minutes. The extracts were transferred to eppendorf tubes, vortexed vigorously and centrifuged at 12,000 rpm, 4° C. for 5 minutes. The DNA pellet was visualised and gently removed and the samples stored at −80° C. until assessment.
Total cell extracts were assessed by polyacrylamide gel electrophoresis. Samples were prepared by adding an appropriate amount of reduced loading buffer to neat cell extracts and boiling for 5 minutes. Samples were then loaded onto a 4-12% BisTris gradient gel (Invitrogen) together with molecular weight markers (Magic Mark XP and SeeBlue prestained markers; Invitrogen) and resolved for […] at 150V in a Novex mini-cell system (Invitrogen) using NuPage MES SDS running buffer. […]

[3] = 50 μg and 125 μg, 3 days, p<0.05
[4] = intradermal, 3 days, over the doses tested

Molecule | deposition of collagen-rich ECM versus control [1, 4] | fibroblast reaction / tissue fibroblast content at the injection site versus control [1, 4] | proteinaceous material in the extracellular matrix versus untreated control cells [2] | further results
Arthromyces ramosus peroxidase [ARP] |  |  |  | deposition of collagen rich ECM, histology score (1+-3+) ([1]; 25 μg, 72 hours): two; fibroblast reaction, histology score (1+-4+) ([1]; 25 μg, 72 hours): two
lactoperoxidase [LP] | dose-dependent effect | dose-dependent increase in the fibroblast reaction | produced much more proteinaceous material | deposition of collagen-rich ECM versus control [1, 3]: significant increase compared to the control; fibroblast reaction versus vehicle control [1, 3]: statistically significant response; number of fibroblasts present at the injection site (H&E images) ([1]; LP 125 μg, TGFβ 0.5 μg, 3 days): profound increase in the number of fibroblasts
microperoxidase [MP] | stimulated the deposition of collagen-rich ECM in a significant, dose dependent manner | significantly increased the tissue fibroblast content | produced much more proteinaceous material | 
soy bean peroxidase [SBP] | markedly increased | markedly increased the tissue fibroblast content | produced much more proteinaceous material | deposition of collagen-rich ECM versus control ([1]; 5-25 μg, 3 days, p<0.05): statistically significant response; tissue fibroblast content versus control ([1]; 5-25 μg, 3 days, p<0.05): statistically significant response
B1 | markedly increased | markedly increased the tissue fibroblast content |  | deposition of collagen-rich ECM versus control ([1]; 25 μg, 3 days, p<0.05): statistically significant response; tissue fibroblast content versus control ([1]; 25 μg, 3 days, p<0.05): statistically significant response
